Like-named read-outs stand apart in the source and are kept apart here.
Columns and labels:
[1] = test system: isolation-induced aggressive behaviour; test: Isolation-induced aggressive behaviour test; assay type: in vivo, male NMRI mice; conditions: Mus musculus, sc, read-out: ED50, isolation induced aggressive behaviour
Description: Male mice subjected to prolonged isolation develop aggressive behaviour against each other when paired (Yen, C. Y. et al., Arch. Int. Pharmacodyn. 123, 179, (1959); Valzelli, L., Adv. Pharmacol. 5, 79 (1967)). […] The clinical correlation of this test indicates tranquillizing and anxiolytic activities as well as antiaggressive properties as such (Duncan, R. L. et al., J. Med. Chem. 13, 1 (1970)).
This type of aggression is interesting because it is known that this kind of emotional behaviour might be located in limbic structures in the brain (MacLean, P. D., Psychosom. Med. 11, 338 (1949)).
Every week male NMRI mice, weighing 20-22 g, were isolated in Makrolon cages for three weeks with diet and water ad libitum. A piece of cardboard was placed between the cages to prevent visual contact.
To test aggressiveness the mice were paired in a neutral area, a beaker (14 cm high and diameter 14 cm). A pair is considered aggressive if both the animals show clear signs of fighting within 5 min. This fighting is characterized by biting and vocalization. As soon as fighting is seen, the mice are separated and brought to their home cage. […] Animals showing no aggression are discarded. […] The test substance is administered s.c. (0.2-0.4 ml/20 g). The mice are paired 0.5 h after the injection for trials of 5 min. duration.
The ED50 -value (mg/kg) reported is the dose inhibiting aggressive behaviour among 50 percent of the pairs 0.5 hour after drug administration.

[2] = test system: conditioned avoidance response; test: Conditioned avoidance response (CAR), shuttle box; assay type: in vivo, female rats; conditions: Rattus norvegicus, sc
Experimental: The effect of the test compounds on CAR was evaluated in a shuttle box, manufactured by Ugo Basile, Italy. The female rats, weighing 150 g, were trained to avoid an electric shock (unconditioned stimulus--US) by escaping from one compartment to the other when the light from a 15 W lamp switched on (conditions stimulus--CS). When they responded to the CS, a conditioned response (CR) was considered to have been elicited.
Rats showing a stable CR of more than 80% after a three weeks' training program were used in the experiments. Groups of six rats were subcutaneously administered with various doses of the test compounds. 11/2 and 4 hours after the administration each rat was placed in the experimental box and the effect on CR was evaluated.
The mechanisms regulating conditioned responses are very complex. Both catecholaminergic and hormonal factors are of importance. [drawing 13]

[3] = test system: isolation-induced aggressive behaviour; conditions: background statement on clinically used drugs; cited from earlier work
[4] = 0.5 h after administration, dose inhibiting aggressive behaviour among 50 percent of the pairs
[5] = 1.5 hr after administration, dose inhibiting CR in 50% of the animals, read-out: ED50, conditioned avoidance behaviour, 1.5 hr
[6] = 4 hr after administration, dose inhibiting CR in 50% of the animals, read-out: ED50, conditioned avoidance behaviour, 4 hr

Row | SMILES | ED50 [1, 4] [mg/kg] | ED50 [2, 5] [mg/kg] | ED50 [2, 6] [mg/kg] | other results
1 | CN(C)CCC=C1c2ccccc2CCc2ccccc21 [Amitriptyline] | 5 |  |  | 
2 | CSc1ccc2c(c1)N(CCC1CCCCN1C)c1ccccc1S2 (centres unmarked) [Thioridazine] | 5 | 41 | 40 | 
3 | CN1C(=O)CN=C(c2ccccc2)c2cc(Cl)ccc21 [Diazepam] |  |  |  | activity on isolation-induced aggressive behaviour (in words) [3]: active on this kind of aggressive behaviour
4 | COC(=O)N1CCN(CCCC(c2ccc(F)cc2)c2ccc(F)cc2)CC1.Cl [I (a), 1-Carbomethoxy-4-[4,4-bis(p-fluorophenyl)butyl]piperazine hydrochloride] | 6 | 45 | 12 | 
5 | CN(C)CCCN1c2ccccc2Sc2ccc(Cl)cc21 [Chlorpromazine] |  |  |  | ED50 ([2]; 1.5 h, read-out: ED50, conditioned avoidance behaviour, 1.5 hr): 3.5 mg/kg; ED50 ([2]; 4 h, read-out: ED50, conditioned avoidance behaviour, 4 hr): 5.2 mg/kg; ED50 ([1]; 0.5 h): 1.4 mg/kg

Source: patent publication US4624953A, “1-piperazinocarboxylates and pharmaceutical compositions containing them” (priority 1981, dated 1986)
